Assay results reported in patent US12539406B2, “Electrostimulation based drug delivery system and method for using thereof” (City University of Hong Kong, priority 2022, dated 2026).

What was measured:
[1] = model drug release into agarose gel; format: physicochemical; settings: PLGA II microneedle patch inserted into agarose gel, 5 days
Source text: The Rhodamine B-loaded PLGA II microneedle patch is then inserted into an agarose gel with a parafilm layer. The gel becomes red after the insertion of PLGA II microneedle patch loaded with Rhodamine B after 5 days while the control sample is still white. The insertion holes created by PLGA II with Rhodamine B show a higher florescence intensity (right panel in FIG. 4A) compared with that of the agar inserted by pure PLGA II microneedle patch (left panel in FIG. 4A).

[2] = long-term drug release from PLGA microneedle patches in PBS; format: physicochemical; settings: loaded in PLGA II microneedle patch, PBS solution at 37° C., after 15 days
Procedure: In addition, the long-term drug release performance of the PLGA II microneedle patch is conducted by loading aspirin and ibuprofen, which are two commonly used drugs in anti-inflammation. Aspirin- and ibuprofen-loaded PLGA microneedle patches are immersed in PBS solution at 37° C. for one month. […] The aspirin releases more than 80% while ibuprofen releases around 70% after 15 days, indicating a promising drug delivery performance of the PLGA microneedles.
Commercial aspirin (99%, Rhawn) or ibuprofen (98%, Macklin) were dissolved in chloroform and mixed with PLGA solution, where the mass of aspirin and ibuprofen are the weight ratio of 10% and 5% of PLGA polymers, respectively. Then the composite solution was added in a PDMS microneedle mold. The solutions in the mold were put in a vacuum over at 40° C. until no solvent remained. Finally, the solidified PLGA microneedles with mold were put at 100° C. heating stage for 2 h to remove residual solvent. After that, the obtained PLGA microneedles were heat pressed on the wireless electric stimulative electrodes, followed by depositing W (˜1000 nm) on the PLGA microneedle to yield the conductive microneedle electrodes.

Row | release of model drug from microneedle tips (fluorescence) [1] | drug release ratio [2] | Compound
1 | successfully released | – | CCN(CC)c1ccc2c(-c3ccccc3C(=O)O)c3ccc(=[N+](CC)CC)cc-3oc2c1.[Cl-] [Rhodamine B]
2 | – | more than 80% | CC(=O)Oc1ccccc1C(=O)O [aspirin]
3 | – | around 70% | CC(C)Cc1ccc(C(C)C(=O)O)cc1 (stereo not drawn) [ibuprofen]
